Source: paper PMC4680881 (Scientific Reports, 2015)
“And” between values parts separate entries of the source, which are not always exact repeats. Equal values may be shown once. Read-outs that look alike come from different tables or passages of the source.

Key:
PrP^Sc deposits [1] = molecular target: T1, PrP^Sc deposits (Mus musculus, UniProt P04925); conditions: 100 μM compound; for Fluorescence staining: brain sections from mock-infected mice; for Fluorescence staining of PrP^Sc deposits: brain slices from mBSE-infected mice
T1 sequence (P04925 23-230 limits assumed): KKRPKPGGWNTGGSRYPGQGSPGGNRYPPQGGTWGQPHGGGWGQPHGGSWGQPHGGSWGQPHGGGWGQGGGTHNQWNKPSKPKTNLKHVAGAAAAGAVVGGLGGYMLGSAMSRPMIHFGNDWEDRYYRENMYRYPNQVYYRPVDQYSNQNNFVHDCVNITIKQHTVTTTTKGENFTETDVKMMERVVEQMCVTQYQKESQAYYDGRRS

Aβ aggregates = conditions: cited from earlier work
amyloid plaques = conditions: cited from earlier work
rMoPrP aggregates [2] = molecular target: T2, rMoPrP aggregates (Mus musculus, UniProt P04925); assay: biochemical; type: binding
T2 sequence (P04925 23-231 limits assumed): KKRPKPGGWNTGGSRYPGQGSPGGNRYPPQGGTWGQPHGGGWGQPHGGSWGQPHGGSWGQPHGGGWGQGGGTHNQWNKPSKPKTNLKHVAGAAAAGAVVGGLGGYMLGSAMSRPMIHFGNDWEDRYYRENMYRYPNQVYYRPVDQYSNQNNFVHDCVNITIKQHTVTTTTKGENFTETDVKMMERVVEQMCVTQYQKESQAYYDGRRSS

rMoPrP aggregates [3] = molecular target: T2, rMoPrP aggregates; assay: biochemical; type: binding; remark: listed apart in the source
[4] = mouse, in vivo; cited from earlier work
PrP^Sc deposits [5] = molecular target: T1, PrP^Sc deposits; type: in vivo
PrP^Sc deposits [6] = molecular target: T1, PrP^Sc deposits; type: in vivo; remark: listed apart in the source
PrP^Sc deposits [7] = molecular target: T1, PrP^Sc deposits
Aβ (1–42) fibrils = conditions: cited from earlier work

## CN(C)c1ccc(C=C2Oc3ccc(I)cc3C2=O)cc1 [AR-NMe2, 2-[(4-Dimethylaminophenyl)methylene]-5-iodo-3(2H)-benzofuranone]
PrP^Sc deposits [1]
  Fluorescence staining: Only background signals
Aβ aggregates
  Binding affinity for Aβ aggregates: high binding affinities
Amyloid plaques
  Staining of amyloid plaques: clearly stained amyloid plaques

## CN(C)c1ccc(/C=C/C(=O)c2ccc(I)cc2)cc1 [CL-NMe2, (E)-3-(4-(Dimethylamino)phenyl)-1-(4-iodophenyl) prop-2-en-1-one]
PrP^Sc deposits [1]
  Fluorescence staining: Only background signals
Aβ aggregates
  Binding affinity for Aβ aggregates: high binding affinities
Amyloid plaques
  Staining of amyloid plaques: clearly stained amyloid plaques

## CN(C)c1ccc(-c2cc(=O)c3cc(I)ccc3o2)cc1 [FL-NMe2, 6-Iodo-4′-dimethyaminoflavone]
PrP^Sc deposits [1]
  Fluorescence staining: Only background signals
Aβ aggregates
  Binding affinity for Aβ aggregates: high binding affinities
Amyloid plaques
  Staining of amyloid plaques: clearly stained amyloid plaques

## COc1ccc(/C=C/c2cc(=O)c3cc(I)ccc3o2)cc1OC [SC-(OMe)2, (E)-6-Iodo-2-(3,4-dimethoxystyryl) chromone]
rMoPrP aggregates [2]
  Ki: 26.6 ± 1.48 nM
PrP^Sc deposits [1]
  Fluorescence staining: no significant signals
  Fluorescence staining of PrP^Sc deposits: clear fluorescence images

## Nc1ccc(/C=C/c2cc(=O)c3cc(I)ccc3o2)cc1 [SC-NH2, (E)-6-Iodo-2-(4-aminostyryl)-chromone]
rMoPrP aggregates [2]
  Ki: 58.7 ± 5.93 nM
  fold lower binding affinity than SC-OMe: 2.8 fold

## CNc1ccc(/C=C/c2cc(=O)c3cc(I)ccc3o2)cc1 [SC-NHMe, (E)-6-Iodo-2-(4-(methylamino)styryl)-chromone]
rMoPrP aggregates [2]
  Ki: 17 ± 5.41 nM
PrP^Sc deposits [1]
  Fluorescence staining: no significant signals
  Fluorescence staining of PrP^Sc deposits: clear fluorescence images

## CN(C)c1ccc(/C=C/c2cc(=O)c3cc(I)ccc3o2)cc1 [SC-NMe2, (E)-6-Iodo-2-(4-(dimethylamino)styryl)-chromone]
rMoPrP aggregates [3]
  Bmax: 36.3 pmol/nmol protein
  Kd: 24.5 nM
PrP^Sc deposits [1]
  Fluorescence staining: Only background signals
  Fluorescence staining of PrP^Sc deposits: clearly labelled PrP^Sc deposits
Aβ aggregates
  Binding affinity for Aβ aggregates: high binding affinities
Amyloid plaques
  Staining of amyloid plaques: clearly stained amyloid plaques
[4]
  Brain uptake and washout: low brain uptake and slow washout

## O=c1cc(/C=C/c2ccc(OCCO)cc2)oc2ccc(I)cc12 [SC-OEtOH, (E)-6-Iodo-2-(4-hydroxyethoxystyryl)-chromone]
rMoPrP aggregates [2]
  Ki: 221 ± 46.7 nM

## O=c1cc(/C=C/c2ccc(O)cc2)oc2ccc(I)cc12 [SC-OH, (E)-6-Iodo-2-(4-hydroxylstyryl)-chromone]
rMoPrP aggregates [2]
  Ki: 35 ± 3.72 nM

## COc1ccc(/C=C/c2cc(=O)c3cc(I)ccc3o2)cc1 [SC-OMe, (E)-6-Iodo-2-(4-methoxystyryl) chromone]
rMoPrP aggregates [2]
  Ki: 20.8 ± 0.69 nM
PrP^Sc deposits [1]
  Fluorescence staining: no significant signals
  Fluorescence staining of PrP^Sc deposits: clear fluorescence images

## COc1ccc(/C=C/c2cc(=O)c3cc([123I])ccc3o2)cc1 [[^123I]SC-OMe]
PrP^Sc deposits [5]; early period (15–48 min), PBS-injected ipsilateral hemisphere of mock-infected mice
  %SUV: 13.4 %SUV
PrP^Sc deposits [5]; early period (15–48 min), PrP^Sc-positive upper right hemisphere of mBSE-infected mouse
  %SUV: 46.5 %SUV
PrP^Sc deposits [5]; early period (15–48 min), contralateral site of mBSE-infected mice
  %SUV: 23.3 %SUV
PrP^Sc deposits [5]; late period (50–85 min), contralateral site of mBSE-infected mice
  %SUV: 3.7 %SUV
PrP^Sc deposits [5]; late period (50–85 min), ipsilateral site of mock-infected mice
  %SUV: 3.5 %SUV
PrP^Sc deposits [5]; late period (50–85 min), right hemisphere of mBSE-infected mice
  %SUV: 7.5 %SUV
PrP^Sc deposits [6]; mBSE-infected mice
  Ex vivo autoradiography, accumulation in PrP^Sc-positive regions: significant [^123I]SC-OMe accumulation
  Ex vivo autoradiography, accumulation in contralateral site: no significant accumulation
PrP^Sc deposits [6]; mock-infected mice
  Ex vivo autoradiography, binding in mock-infected mouse brain: low signals

## CN(C)c1ccc(/C=C2\Oc3ccc([125I])cc3C2=O)cc1 [[^125I]AR-NMe2]
rMoPrP aggregates [3]
  Bmax: 34.9 pmol/nmol protein
  Kd: 125 nM and 119 nM

## CN(C)c1ccc(/C=C/C(=O)c2ccc([125I])cc2)cc1 [[^125I]CL-NMe2]
rMoPrP aggregates [3]
  Bmax: 16.7 pmol/nmol protein
  Kd: 246 nM and 224 nM

## CN(C)c1ccc(-c2cc(=O)c3cc([125I])ccc3o2)cc1 [[^125I]FL-NMe2]
rMoPrP aggregates [3]
  Bmax: 11.2 pmol/nmol protein
  Kd: 201 nM

## CNc1ccc(C=Cc2cc(=O)c3cc([125I])ccc3o2)cc1 [[^125I]SC-NHMe]
PrP^Sc deposits [7]; brain sections of mock-infected mice
  In vitro autoradiography, distribution of radioactivity: homogeneous distribution of radioactivity
PrP^Sc deposits [7]; mBSE-infected mice, right corpus callosum region
  In vitro autoradiography, signal in PrP^Sc deposit region: high level of background and no significant accumulation of prion deposits

## CN(C)c1ccc(/C=C/c2cc(=O)c3cc([125I])ccc3o2)cc1 [[^125I]SC-NMe2]
rMoPrP aggregates [3]
  fold higher binding affinity compared with [125I]AR-NMe2: 3.5 fold
  Kd: 24.5 nM and 36.7 nM

## Ic1ccc2nc(-c3ccc(-c4ccn[nH]4)cc3)cn2c1 [^125I-DRM106]
Aβ (1–42) fibrils
  Kd: 10.1 nM

## [125I]c1ccc2nc(-c3ccc(-c4ccn[nH]4)cc3)cn2c1 [^125I-DRM106]
Aβ (1–42) fibrils
  Bmax: 34.3 pmol/nmol
